In patent US8440666B2, “Pyridazinone compounds and P2X7 receptor inhibitors” (Nissan Chemical Industries, Ltd., priority 2007, dated 2013):

Experiments:
[1] = molecular target: T1, Human P2X7 (hP2X7) receptor (Homo sapiens, UniProt Q99572); assay: Dye assay: BzATP-induced Yo-Pro-1 uptake in HEK293 cells stably expressing hP2X7; type: cell-based; settings: 90 min incubation
T1 construct: myc-His (from the pcDNA3.1/myc-HisA vector); expressed in transfected cells
T1 sequence (Q99572 1-595): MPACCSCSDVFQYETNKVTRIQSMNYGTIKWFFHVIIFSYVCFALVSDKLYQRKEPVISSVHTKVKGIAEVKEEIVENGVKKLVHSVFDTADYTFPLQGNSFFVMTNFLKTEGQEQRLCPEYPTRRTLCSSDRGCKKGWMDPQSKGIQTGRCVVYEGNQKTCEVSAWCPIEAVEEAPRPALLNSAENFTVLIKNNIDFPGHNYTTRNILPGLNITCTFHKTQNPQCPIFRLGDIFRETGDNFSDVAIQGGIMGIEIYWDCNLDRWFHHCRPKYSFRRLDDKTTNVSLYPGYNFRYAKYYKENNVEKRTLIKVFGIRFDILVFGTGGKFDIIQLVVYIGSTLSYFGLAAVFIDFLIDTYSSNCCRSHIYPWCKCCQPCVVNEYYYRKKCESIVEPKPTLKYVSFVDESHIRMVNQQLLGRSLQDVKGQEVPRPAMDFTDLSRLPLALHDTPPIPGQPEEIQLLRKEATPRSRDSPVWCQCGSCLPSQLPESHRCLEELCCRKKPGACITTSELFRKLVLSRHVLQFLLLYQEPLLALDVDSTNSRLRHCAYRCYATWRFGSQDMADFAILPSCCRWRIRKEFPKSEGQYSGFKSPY
Procedure, shortened: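 HEK293 cells stably expressing cloned human P2X7 (595 aa) were preincubated 30 min with compound, then given 2 μM Yo-Pro-1 and 0.1 mM BzATP (final) for 90 min. Dye uptake read by fluorescence (ex 485/em 535 nm); IC50 derived from % inhibition versus log concentration.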

[2] = system: IL-1β in supernatants of peripheral blood mononuclear cells; assay: IL-1β assay: BzATP- or ATP-induced IL-1β release from LPS-treated human peripheral blood mononuclear cells; type: cell-based; settings: 2 h; IL-1β in supernatants of LPS-treated human PBMC; BzATP (1 mM) or ATP (5 mM), 120 min
Description: Human whole blood from healthy volunteers was diluted with equal volume of saline and peripheral blood mononuclear cells were collected by using a Limphoprep tube (Daiichi Pure Chemicals), washed with physiological saline and seeded onto a 96-well plate with a medium containing 1-10 ng/mL LPS (SIGMA). 30 minutes later, the cells were treated with varying concentrations of various compounds and incubated for 30 minutes. Then, the cells were treated with BzATP (final concentration 1 mM) or ATP (final concentration 5 mM) and incubated for 120 minutes. The cells were centrifugated to collect supernatents, and the concentration of IL-1β in supernatants were determined by IL-1β HTRF kit (CIS biointernational). The % inhibition rates were calculated and plotted against the logarithms of the concentrations to determine IC50.

[3] = BzATP (0.1 mM)-induced Yo-Pro-1 uptake, compounds 30 min pre-treatment
[4] = BzATP 0.1 mM, Yo-Pro-1 2 μM, 30 min pre-treatment

SMILES	IC50 [1, 3]	IC50 [2]	IC50 [1, 4]
CCC(NC(=O)Cn1ncc(N[C@@H]2C[C@@H]3C[C@H]([C@H]2C)C3(C)C)c(Br)c1=O)c1ccncc1 (some centres unmarked) [compound 171]	4.3 nM	33 nM	–
C[C@@H]1[C@H]2C[C@@H](C[C@H]1Nc1cnn(CC(=O)N[C@H](C)c3ccncc3)c(=O)c1Cl)C2(C)C [compound 230]	2.8 nM	3.1 nM	–
O=C(Cn1ncc(NC2C3CCCC2CCC3)c(Br)c1=O)NCc1ccncc1 (centres unmarked) [compound 325]	8.9 nM	40 nM	–
CCC(NC(=O)Cn1ncc(N[C@@H]2C[C@@H]3C[C@@H](C3(C)C)[C@]2(C)O)c(Br)c1=O)c1ccncc1 (some centres unmarked) [compound 358]	10 nM	38 nM	–
CC(NC(=O)Cn1ncc(NC2C3CCCC2CCC3)c(Cl)c1=O)c1ccncc1Cl (centres unmarked) [compound 378]	1.5 nM	1.5 nM	–

Now from value to compound:

IC50 [1, 3]	IC50 [2]	IC50 [1, 4]	SMILES
3.9 nM	39 nM	–	CC1C(Nc2cnn(CC(=O)NCc3ccnnc3)c(=O)c2Br)CC2CC1C2(C)C (centres unmarked) [compound 214]
12 nM	38 nM	–	COc1cnccc1CNC(=O)Cn1ncc(N[C@@H]2C[C@@H]3C[C@H]([C@H]2C)C3(C)C)c(Br)c1=O [compound 216]
1.4 nM	3.3 nM	–	CC(NC(=O)Cn1ncc(N[C@@H]2C[C@@H]3C[C@H]([C@H]2C)C3(C)C)c(Cl)c1=O)c1ccncc1Cl (some centres unmarked) [compound 264]
3.7 nM	4.3 nM	–	C[C@@H]1[C@H]2C[C@@H](C[C@H]1Nc1cnn(CC(=O)NCc3ccncc3N(C)C)c(=O)c1Cl)C2(C)C [compound 277]
–	17 nM	2.1 nM	Cc1cnncc1CNC(=O)Cn1ncc(N[C@@H]2C[C@@H]3C[C@H]([C@H]2C)C3(C)C)c(Cl)c1=O [compound 432]
–	51 nM	6.2 nM	C[C@@H]1[C@H]2C[C@@H](C[C@H]1Nc1cnn(CC(=O)NCc3ccnnc3Cl)c(=O)c1Cl)C2(C)C [compound 433]
–	36 nM	3.2 nM	C[C@@H]1[C@H]2C[C@@H](C[C@H]1Nc1cnn(CC(=O)NCc3ccnnc3N(C)C)c(=O)c1Cl)C2(C)C [compound 435]
–	27 nM	1.7 nM	C[C@@H]1[C@H]2C[C@@H](C[C@H]1Nc1cnn(CC(=O)NCc3ccncc3S(C)(=O)=O)c(=O)c1Cl)C2(C)C [compound 442]
